Data as given in patent US5641780A, “Pyrrolo-indole derivatives” (priority 1994, dated 1997).
Read-outs that look alike come from different tables or passages of the source.

Key:
Sarcoma 180 tumor = assay: Therapeutic Effect on Sarcoma 180 Tumor; type: in vivo, male ddY-strain mice; conditions: Mus musculus, determined seven days after implantation; for response vs control in vivo at 0.5 mg/kg: read-out: T/C (average tumor volume treated / control), dose 0.50 mg/kg, intravenous, one day after implantation
Procedure: Five male ddY-strain mice each weighing 18-20 g were used for each group as test animals, and 5×10^5 Sarcoma 180 tumor cells were implantedat the axilla subcutaneously. One day after the implantation, 0.2 ml of a physiological saline containing Compound (I) at the concentration shown in Table 3 was intravenously administered to each mouse. T/C [T: average tumor volume (mm^3) of the group treated with the test compound, C: average tumor volume (mm^3) of the control group (to which 0.2 ml of a physiological saline was intravenously administered)] was determined seven days after the implantation.

HeLaS3 cells = assay: Growth Inhibitory Effect Against HeLaS3 cells; type: cell-based
Procedure: HeLaS3 cells were suspended in MEM medium containing 10% fetal calf serum and 2 mM glutamine to a concentration of 2.67×10^4 cells/ml. The cell suspension thus prepared was put into wells of a 24-well culture plate in an amount of 0.75 ml per well. After the cells were incubated in a CO2 incubator overnight at 37° C., Compound (I) which had been appropriately diluted with a culture medium was added to each well in an amount of 0.25 ml.
The cells were further incubated in the CO2 incubator for 72 hours, and the culture supernatant was removed. Then, the cells were dispersed in a solution of trypsin and EDTA, and recovered. The number of the cells was counted using a cell counter. The concentration of Compound (I) at which the growth of the cells is inhibited by 50% was calculated by comparing the number of untreated cells with the number of the cells treated with Compound (I) at known concentrations, and the value was defined as IC50.

ddY-strain male mice = assay: Acute toxicity (minimum lethal dose); type: in vivo; conditions: intravenous, mortality at 14 days after administration
Procedure: Compound (I) was intravenously administered to ddY-strain male mice each weighing 20±1 g. MLD (minimum lethal dose) was determined by observing the mortality at 14 days after administration.

[1] = Sarcoma-180, 168 h, dose 8.0 mg/kg, intravenous, one day after implantation, read-out: T/C (average tumor volume treated / control)
[2] = Homo sapiens, HeLa S3, 72 hours, 37° C., cell counter, read-out: IC50, growth inhibition of HeLaS3 cells
[3] = Homo sapiens, HeLa S3, 72 h, read-out: IC50, growth inhibition of HeLaS3 cells, 72 hours, 37° C., cell counter
[4] = Sarcoma-180, 168 h, dose 4.0 mg/kg, intravenous, one day after implantation, read-out: T/C (average tumor volume treated / control)
[5] = Sarcoma-180, iv, 168 h, read-out: T/C (average tumor volume treated / control), dose 4.0 mg/kg, intravenous, one day after implantation

SMILES | IC50 (HeLaS3 cells; [2]) | MLD (minimum lethal dose) (ddY-strain male mice) | IC50 (HeLaS3 cells; [3]) | also measured
COC(=O)c1c(C)[nH]c2c(OCc3ccccc3)cc3c(c12)C(CBr)CN3C(=O)c1cc2cc(OC)c(OC)c(OC)c2[nH]1 (stereo not drawn) [Compound 1] | 5.1 nM | – | – | response vs control in vivo at 8 mg/kg (Sarcoma 180 tumor; [1]): 19%
COC(=O)c1c(C)[nH]c2c(OC)cc3c(c12)C(CBr)CN3C(=O)c1cc2cc(OC)c(OC)c(OC)c2[nH]1 (stereo not drawn) [Compound 2] | 6.3 nM | – | – | response vs control in vivo at 8 mg/kg (Sarcoma 180 tumor; [1]): 27%
COC(=O)c1c(C)[nH]c2c(OS(C)(=O)=O)cc3c(c12)C(CBr)CN3C(=O)c1cc2cc(OC)c(OC)c(OC)c2[nH]1 (stereo not drawn) [Compound 4] | 4 nM | – | – | response vs control in vivo at 16 mg/kg (Sarcoma 180 tumor; Sarcoma-180, 168 h, dose 16 mg/kg, intravenous, one day after implantation, read-out: T/C (average tumor volume treated / control)): 20%
COC(=O)c1c(C)[nH]c2c(OC(C)=O)cc3c(c12)C(CBr)CN3C(=O)c1cc2cc(OC)c(OC)c(OC)c2[nH]1 (stereo not drawn) [Compound 6] | – | 0.25 mg/kg | 0.13 nM | response vs control in vivo at 0.5 mg/kg (Sarcoma 180 tumor; Sarcoma-180, iv, 168 h): 18%
COC(=O)Oc1cc2c(c3c(C(=O)OC)c(C)[nH]c13)C(CBr)CN2C(=O)c1cc2cc(OC)c(OC)c(OC)c2[nH]1 (stereo not drawn) [Compound 7] | – | 0.50 mg/kg | 0.082 nM | response vs control in vivo at 0.5 mg/kg (Sarcoma 180 tumor; Sarcoma-180, iv, 168 h): 10%
COC(=O)c1c(C)[nH]c2c(OC(=O)Oc3ccccc3)cc3c(c12)C(CBr)CN3C(=O)c1cc2cc(OC)c(OC)c(OC)c2[nH]1 (stereo not drawn) [Compound 8] | – | 0.50 mg/kg | 0.051 nM | response vs control in vivo at 0.5 mg/kg (Sarcoma 180 tumor; Sarcoma-180, iv, 168 h): 9%
COC(=O)c1c(C)[nH]c2c(OC(=O)NCC(=O)O)cc3c(c12)C(CBr)CN3C(=O)c1cc2cc(OC)c(OC)c(OC)c2[nH]1 (stereo not drawn) [Compound 10] | 0.23 nM | > 4.0 mg/kg | – | response vs control in vivo at 4 mg/kg (Sarcoma 180 tumor; [4]): 10%
COC(=O)c1c(C)[nH]c2c(OC(=O)NC(Cc3ccccc3)C(=O)O)cc3c(c12)C(CBr)CN3C(=O)c1cc2cc(OC)c(OC)c(OC)c2[nH]1 (stereo not drawn) [Compound 11] | 0.17 nM | > 4.0 mg/kg | – | response vs control in vivo at 4 mg/kg (Sarcoma 180 tumor; [4]): 7%
COC(=O)c1c(C)[nH]c2c(OC(C)=O)cc3c(c12)C(CBr)CN3C(=O)/C=C/c1ccc(OC)cc1 (stereo not drawn) [Compound 14] | – | 2.0 mg/kg | 0.31 nM | response vs control in vivo at 4 mg/kg (Sarcoma 180 tumor; [5]): 22%
COC(=O)c1c(C)[nH]c2c(OC(=O)SC)cc3c(c12)C(CBr)CN3C(=O)/C=C/c1ccc(OC)cc1 (stereo not drawn) [Compound 15] | 0.43 nM | – | – | response vs control in vivo at 1 mg/kg (Sarcoma 180 tumor; Sarcoma-180, 168 h, dose 1.0 mg/kg, intravenous, one day after implantation, read-out: T/C (average tumor volume treated / control)): 36%
COC(=O)c1c(C)[nH]c2c(OC(=O)c3cccnc3)cc3c(c12)C(CBr)CN3C(=O)/C=C/c1ccc(OC)cc1 (stereo not drawn) [Compound 16] | 0.4 nM | – | – | response vs control in vivo at 2 mg/kg (Sarcoma 180 tumor; Sarcoma-180, 168 h, dose 2.0 mg/kg, intravenous, one day after implantation, read-out: T/C (average tumor volume treated / control)): 33%
COC(=O)c1c(C)[nH]c2c(OC(=O)NN3CCN(C)CC3)cc3c(c12)C(CBr)CN3C(=O)/C=C/c1ccc(OC)cc1 (stereo not drawn) [Compound 18] | – | – | 0.54 nM | response vs control in vivo at 8 mg/kg (Sarcoma 180 tumor; Sarcoma-180, iv, 168 h, read-out: T/C (average tumor volume treated / control), dose 8.0 mg/kg, intravenous, one day after implantation): 18%
COC(=O)c1c(C)[nH]c2c(OC(=O)NN3CCN(C)CC3)cc3c(c12)C(CBr)CN3C(=O)/C=C/c1ccc(OC)cc1 (stereo not drawn) [Compound 19] | – | > 8.0 mg/kg | – | response vs control in vivo at 4 mg/kg (Sarcoma 180 tumor; [5]): 26%; IC50 (HeLaS3 cells; read-out: IC50, growth inhibition of HeLaS3 cells, 72 hours, 37° C., cell counter): 0.53 nM
COC(=O)c1c(C)[nH]c2c(OC(=O)NN3CCOCC3)cc3c(c12)C(CBr)CN3C(=O)/C=C/c1ccc(OC)cc1 (stereo not drawn) [Compound 20] | 6.7 nM | – | – | –
COC(=O)c1c(C)[nH]c2c(OC(=O)c3nccnc3N)cc3c(c12)C(CBr)CN3C(=O)/C=C/c1ccc(OC)cc1 (stereo not drawn) [Compound 21] | 0.38 nM | – | – | –
COC(=O)c1c(C)[nH]c2c(OC(=O)c3ccc(N)c(N)c3)cc3c(c12)C(CBr)CN3C(=O)/C=C/c1ccc(OC)cc1 (stereo not drawn) [Compound 22] | 2.7 nM | – | – | –
